Test results: PubChem BioAssay (NCI)
“And” between values parts separate entries of the source, which are not always exact repeats. Identical values can stand only once.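 Test compounds were applied to cells in 96-well plates for 48 hours at 5 doses. Here, GI50 denotes the concentration required for 50% inhibition of growth. At the TGI there is no net growth.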

Experiments:
Assay in all cases: growth of human tumour cells (NCI), 48 h
A549 NSCLC = test system: A549 NSCLC
MCF7 breast = test system: MCF7 breast
SK-OV-3 ovarian = test system: SK-OV-3 ovarian
COLO 205 colon = test system: COLO 205 colon
UO-31 renal = test system: UO-31 renal
KM12 colon = test system: KM12 colon
RXF 393 renal = test system: RXF 393 renal
RPMI-8226 leukemia = test system: RPMI-8226 leukemia
HCT-15 colon = test system: HCT-15 colon
MDA-MB-435 = test system: MDA-MB-435

SMILES	GI50 (A549 NSCLC)	TGI (A549 NSCLC)	GI50 (MCF7 breast)	TGI (MCF7 breast)	GI50 (SK-OV-3 ovarian)	TGI (SK-OV-3 ovarian)	GI50 (COLO 205 colon)	TGI (COLO 205 colon)	GI50 (UO-31 renal)	TGI (UO-31 renal)	GI50 (KM12 colon)	TGI (KM12 colon)	GI50 (RXF 393 renal)	TGI (RXF 393 renal)	GI50 (RPMI-8226 leukemia)	TGI (RPMI-8226 leukemia)	GI50 (HCT-15 colon)	TGI (HCT-15 colon)	GI50 (MDA-MB-435)	TGI (MDA-MB-435)
CCCc1cc(=O)n2c(C(=O)Nc3ccc(Cl)cc3C)c(C(=O)Nc3ccc(F)cc3)sc2n1	2.63 µM	5.95 µM	4.67 µM	33.9 µM	12.7 µM	52.8 µM	16.9 µM	> 150 µM	7.35 µM	30.4 µM	13.5 µM	> 150 µM	1.17 µM	4.46 µM	2.7 µM	6.88 µM	9.4 µM	> 150 µM	20.9 µM	> 150 µM
N[C@H](CCC(=O)N[C@@H](Cc1c[nH]c2ccccc12)C(=O)O)C(=O)O	> 100 µM	> 100 µM	> 100 µM	> 100 µM	> 100 µM	> 100 µM	> 100 µM	> 100 µM	> 100 µM	> 100 µM	> 100 µM	> 100 µM	> 100 µM	> 100 µM	> 100 µM	> 100 µM	> 100 µM	> 100 µM	> 100 µM	> 100 µM
Nc1cc(Br)c(-c2nnc(CCC(=O)c3nc4ccccc4[nH]3)o2)c(Br)c1	27.6 µM	> 100 µM	3.06 µM	> 100 µM	22.3 µM	80.5 µM	11.8 µM	30.8 µM	4.06 µM	> 100 µM	3.71 µM	18 µM	13 µM	58.7 µM	4.21 µM	> 100 µM	> 100 µM	> 100 µM	1.56 µM	3.71 µM
CCC/C=C/C=C/C1CC(O)C(O)C(=O)C1CO (stereo not given)		> 100 µM		> 100 µM		> 100 µM		> 100 µM		> 100 µM		> 100 µM		> 100 µM		> 100 µM		> 100 µM		> 100 µM
COc1ccc(-c2ccc3c(N4CCOC[C@@H]4C)nc(N4CCOC[C@@H]4C)nc3n2)cc1CO	0.0052 µM and 0.0253 µM	1.78 µM and 0.57 µM	0.00432 µM and < 0.0133 µM	> 3.27 µM and 1.34 µM	0.00324 µM and 0.0138 µM	0.0479 µM and 0.116 µM	0.00502 µM and 0.0474 µM		0.003 µM and < 0.01 µM	0.0758 µM and 0.0806 µM	0.00626 µM and 0.0449 µM	> 100 µM	0.00244 µM and < 0.0105 µM	0.00676 µM and 0.0643 µM	0.00363 µM and 0.0281 µM		0.00526 µM and 0.0301 µM	> 100 µM	0.00531 µM and 0.0227 µM	0.0557 µM and 0.263 µM
C#CCOc1cccc(Nc2ncnc3c(NC(=O)C=C)cccc23)c1	30.9 µM	> 100 µM	21.2 µM	> 100 µM	38.2 µM	> 100 µM	24.6 µM	73.4 µM	13.4 µM	87.5 µM	20.3 µM	> 100 µM	13.3 µM	39.7 µM	8.46 µM	47.2 µM	12.6 µM	81.8 µM	7.14 µM	77.7 µM
NCCNCC1CCNCC1		> 100 µM		> 100 µM		> 100 µM		> 100 µM		> 100 µM		> 100 µM		> 100 µM		> 100 µM		> 100 µM		> 100 µM
COc1cc2c(Nc3cc(Cl)c(OC)c(Cl)c3)c(C#N)cnc2cc1OCCCN1CCN(C)CC1	1.5 µM	4.12 µM	2.58 µM	12.6 µM	0.378 µM	16.6 µM	2.02 µM	3.79 µM	0.641 µM	5.47 µM	2.19 µM	10.1 µM	1.01 µM	2.5 µM	1.47 µM	4.79 µM	1.32 µM	12.1 µM	1.24 µM	3.2 µM
CN(C)C(=S)SSC(=S)N(C)C	17.2 µM and 3.51 µM and 19.7 µM	45.9 µM and > 100 µM and 48.1 µM	0.478 µM	22.7 µM and 39.3 µM and > 93.5 µM	37.1 µM and > 100 µM and 31.9 µM	> 100 µM		29.3 µM	15 µM	28.7 µM and > 46.4 µM and 94 µM		24.7 µM and 11.1 µM and 45.4 µM	16.5 µM and 38.6 µM and 16.6 µM	31 µM and > 62.6 µM and 32.6 µM		49.1 µM and 16.1 µM and 58.9 µM	13.4 µM and 47.9 µM and 13.5 µM	29.4 µM and > 100 µM and 31 µM	15.6 µM and 8.04 µM and 21.1 µM	38.6 µM and 33.5 µM and > 56.7 µM
Nc1ccccc1O.O.O=C(O)C1[O][Sb][O]C1C(=O)O (stereo not given)	54.7 µM	> 100 µM	12.6 µM	37.7 µM	88.3 µM	> 100 µM	18.7 µM	35.3 µM	9.34 µM	24.5 µM	> 66.2 µM	> 100 µM	6.35 µM	16.7 µM	1.51 µM	6.56 µM	19.9 µM	57.1 µM	16.5 µM	30.8 µM
C=CC(=O)N1CN(C(=O)C=C)CN(C(=O)C=C)C1	21.2 µM	81.7 µM	3.65 µM	15.5 µM	26.8 µM	> 100 µM	1.7 µM	3.59 µM	2.19 µM	8.53 µM	18.5 µM	38.6 µM	1.33 µM	2.83 µM	2.29 µM	6.76 µM	2.01 µM	4.68 µM	2.96 µM	10.7 µM
